Patent US20120122860A1, “SOLID FORMS OF SULFONAMIDES AND AMINO ACIDS” (Plexxikon, Inc., priority 2009, published 2012)

Legend:
B-Raf V600E = B-Raf V600E (Homo sapiens, UniProt P15056, V600E); assay: Kinase activity assay, B-Raf V600E; type: biochemical; settings: read-out: activity toward kinase B-Raf V600E, IC50
A-Raf = biological target: T1, A-Raf (Homo sapiens, UniProt P10398); assay: Kinase activity assay, A-Raf
T1 sequence (P10398 1-606): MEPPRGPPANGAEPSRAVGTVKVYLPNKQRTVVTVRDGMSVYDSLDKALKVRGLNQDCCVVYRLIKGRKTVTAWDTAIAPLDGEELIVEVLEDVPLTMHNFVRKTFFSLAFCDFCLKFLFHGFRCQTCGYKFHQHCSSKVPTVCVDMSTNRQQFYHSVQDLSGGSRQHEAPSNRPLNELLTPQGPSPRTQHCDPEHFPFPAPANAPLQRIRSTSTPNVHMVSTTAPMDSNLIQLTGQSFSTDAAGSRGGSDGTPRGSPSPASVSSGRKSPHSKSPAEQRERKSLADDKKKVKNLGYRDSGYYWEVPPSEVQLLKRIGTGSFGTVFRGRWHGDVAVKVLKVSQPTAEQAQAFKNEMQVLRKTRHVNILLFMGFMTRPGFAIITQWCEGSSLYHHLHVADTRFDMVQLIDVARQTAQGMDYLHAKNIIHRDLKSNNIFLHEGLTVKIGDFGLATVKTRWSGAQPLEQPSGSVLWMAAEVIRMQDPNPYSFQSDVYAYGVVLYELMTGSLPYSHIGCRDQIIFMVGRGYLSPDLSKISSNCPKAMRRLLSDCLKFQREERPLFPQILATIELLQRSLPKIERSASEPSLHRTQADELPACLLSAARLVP

Kit = Kit (Homo sapiens, UniProt P10721); assay: Kinase activity assay, Kit
B-Raf = B-Raf (Homo sapiens, UniProt P15056); assay: Kinase activity assay, B-Raf; type: biochemical; settings: read-out: activity toward kinase B-Raf, IC50
C-Raf = C-Raf (Homo sapiens, UniProt P04049); assay: Kinase activity assay, C-Raf
Src = Src (Homo sapiens, UniProt P12931); assay: Kinase activity assay, Src
Kdr = Kdr (Homo sapiens, UniProt P35968); assay: Kinase activity assay, Kdr

Measured: IC50

C-Raf, sequence (P04049 whole entry): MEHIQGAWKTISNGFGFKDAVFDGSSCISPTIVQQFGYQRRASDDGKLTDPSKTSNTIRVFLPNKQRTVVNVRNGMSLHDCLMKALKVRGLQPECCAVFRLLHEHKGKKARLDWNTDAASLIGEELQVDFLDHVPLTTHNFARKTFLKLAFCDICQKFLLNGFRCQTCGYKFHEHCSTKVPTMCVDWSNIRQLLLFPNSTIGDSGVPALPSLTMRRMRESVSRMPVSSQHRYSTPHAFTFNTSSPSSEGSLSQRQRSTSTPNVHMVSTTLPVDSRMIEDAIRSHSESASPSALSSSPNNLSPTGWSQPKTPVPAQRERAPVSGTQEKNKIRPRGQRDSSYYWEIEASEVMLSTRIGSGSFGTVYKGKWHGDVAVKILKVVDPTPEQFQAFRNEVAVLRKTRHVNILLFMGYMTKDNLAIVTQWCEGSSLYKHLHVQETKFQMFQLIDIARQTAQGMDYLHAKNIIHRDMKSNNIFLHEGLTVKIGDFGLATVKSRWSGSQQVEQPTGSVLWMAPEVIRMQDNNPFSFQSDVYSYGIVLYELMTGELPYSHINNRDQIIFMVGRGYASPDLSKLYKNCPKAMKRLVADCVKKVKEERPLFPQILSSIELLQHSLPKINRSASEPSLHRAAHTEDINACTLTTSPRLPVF
B-Raf V600E, sequence (P15056 whole entry V600E): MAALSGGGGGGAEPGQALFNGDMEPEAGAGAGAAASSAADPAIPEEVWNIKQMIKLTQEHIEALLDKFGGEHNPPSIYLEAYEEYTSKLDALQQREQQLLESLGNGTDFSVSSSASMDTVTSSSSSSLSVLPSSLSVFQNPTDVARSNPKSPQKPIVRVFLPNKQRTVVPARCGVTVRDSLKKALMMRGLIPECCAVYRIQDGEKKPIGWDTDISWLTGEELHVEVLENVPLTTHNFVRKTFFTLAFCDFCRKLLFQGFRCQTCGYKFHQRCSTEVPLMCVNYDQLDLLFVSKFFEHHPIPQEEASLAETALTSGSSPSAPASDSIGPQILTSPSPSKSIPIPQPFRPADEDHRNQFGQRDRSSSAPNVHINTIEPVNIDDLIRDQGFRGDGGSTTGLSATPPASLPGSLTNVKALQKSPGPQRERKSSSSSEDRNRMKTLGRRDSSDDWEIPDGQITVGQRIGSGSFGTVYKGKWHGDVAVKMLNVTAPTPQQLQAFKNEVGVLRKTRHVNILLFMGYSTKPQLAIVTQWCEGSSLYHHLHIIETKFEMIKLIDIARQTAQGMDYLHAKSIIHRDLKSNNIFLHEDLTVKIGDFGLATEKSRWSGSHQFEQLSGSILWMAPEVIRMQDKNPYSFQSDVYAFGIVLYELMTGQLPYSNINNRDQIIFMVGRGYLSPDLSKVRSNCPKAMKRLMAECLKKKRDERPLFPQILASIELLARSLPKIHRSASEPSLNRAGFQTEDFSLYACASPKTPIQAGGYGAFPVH
Kit, sequence (P10721 26-976): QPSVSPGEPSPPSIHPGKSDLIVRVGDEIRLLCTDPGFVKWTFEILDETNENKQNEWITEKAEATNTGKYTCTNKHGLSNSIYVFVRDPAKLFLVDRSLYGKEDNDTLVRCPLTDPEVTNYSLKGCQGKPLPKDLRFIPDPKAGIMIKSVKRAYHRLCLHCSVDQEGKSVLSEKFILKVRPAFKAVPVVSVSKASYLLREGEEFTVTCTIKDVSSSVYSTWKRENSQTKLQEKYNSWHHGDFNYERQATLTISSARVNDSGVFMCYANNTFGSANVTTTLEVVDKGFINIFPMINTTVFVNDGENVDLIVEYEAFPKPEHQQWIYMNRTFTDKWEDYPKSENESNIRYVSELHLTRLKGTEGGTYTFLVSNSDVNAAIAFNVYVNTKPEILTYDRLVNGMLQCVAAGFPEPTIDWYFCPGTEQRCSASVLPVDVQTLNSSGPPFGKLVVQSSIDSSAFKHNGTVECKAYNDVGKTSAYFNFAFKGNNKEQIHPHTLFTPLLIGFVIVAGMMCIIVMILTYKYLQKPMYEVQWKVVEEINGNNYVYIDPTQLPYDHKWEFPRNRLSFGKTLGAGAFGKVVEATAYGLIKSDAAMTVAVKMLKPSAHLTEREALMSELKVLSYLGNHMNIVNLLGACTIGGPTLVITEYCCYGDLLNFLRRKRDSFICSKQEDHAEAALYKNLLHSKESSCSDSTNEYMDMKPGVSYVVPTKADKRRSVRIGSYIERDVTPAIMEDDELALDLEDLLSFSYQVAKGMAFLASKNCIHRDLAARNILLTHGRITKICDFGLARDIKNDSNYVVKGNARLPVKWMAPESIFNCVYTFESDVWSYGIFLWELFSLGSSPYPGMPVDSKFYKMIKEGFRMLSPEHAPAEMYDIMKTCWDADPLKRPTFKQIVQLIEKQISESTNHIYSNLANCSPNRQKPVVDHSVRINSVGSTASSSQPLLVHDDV
B-Raf, sequence (P15056 whole entry): as the sequence (P15056 whole entry V600E) above, with E600V counted along it
Kdr, sequence (P35968 20-1356): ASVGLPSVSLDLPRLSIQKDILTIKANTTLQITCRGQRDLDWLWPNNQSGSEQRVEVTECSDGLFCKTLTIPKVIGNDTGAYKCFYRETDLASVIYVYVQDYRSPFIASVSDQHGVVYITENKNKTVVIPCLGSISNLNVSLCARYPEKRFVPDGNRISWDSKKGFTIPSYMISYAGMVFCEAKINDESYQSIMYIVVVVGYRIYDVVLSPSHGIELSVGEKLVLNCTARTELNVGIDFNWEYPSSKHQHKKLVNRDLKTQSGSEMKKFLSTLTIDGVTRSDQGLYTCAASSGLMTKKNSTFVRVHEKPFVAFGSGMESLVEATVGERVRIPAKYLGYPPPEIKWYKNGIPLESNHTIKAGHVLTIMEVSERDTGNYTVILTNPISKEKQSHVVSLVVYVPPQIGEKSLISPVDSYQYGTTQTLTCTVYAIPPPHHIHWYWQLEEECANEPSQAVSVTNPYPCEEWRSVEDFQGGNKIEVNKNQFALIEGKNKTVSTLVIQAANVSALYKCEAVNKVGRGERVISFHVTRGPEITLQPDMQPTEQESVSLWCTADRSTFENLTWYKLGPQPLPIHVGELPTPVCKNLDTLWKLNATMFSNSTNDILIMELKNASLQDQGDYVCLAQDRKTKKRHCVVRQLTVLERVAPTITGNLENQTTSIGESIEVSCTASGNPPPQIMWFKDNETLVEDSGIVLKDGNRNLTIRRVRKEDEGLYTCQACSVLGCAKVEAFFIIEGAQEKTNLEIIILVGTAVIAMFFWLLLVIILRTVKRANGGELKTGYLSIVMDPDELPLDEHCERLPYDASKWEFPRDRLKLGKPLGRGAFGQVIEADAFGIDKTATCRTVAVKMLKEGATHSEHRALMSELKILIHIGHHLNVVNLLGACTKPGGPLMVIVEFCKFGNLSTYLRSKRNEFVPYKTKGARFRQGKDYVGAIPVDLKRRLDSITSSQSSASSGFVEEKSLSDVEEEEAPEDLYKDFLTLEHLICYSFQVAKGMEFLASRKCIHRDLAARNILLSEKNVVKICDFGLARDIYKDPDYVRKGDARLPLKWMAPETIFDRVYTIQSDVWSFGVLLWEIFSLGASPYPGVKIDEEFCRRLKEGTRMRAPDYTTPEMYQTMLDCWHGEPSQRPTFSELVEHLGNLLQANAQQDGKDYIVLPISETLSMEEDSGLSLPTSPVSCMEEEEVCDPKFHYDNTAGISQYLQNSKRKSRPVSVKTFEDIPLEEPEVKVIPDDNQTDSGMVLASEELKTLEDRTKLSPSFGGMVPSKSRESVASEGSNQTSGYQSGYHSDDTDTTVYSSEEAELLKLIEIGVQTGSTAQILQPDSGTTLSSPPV
Src, sequence (P12931 whole entry): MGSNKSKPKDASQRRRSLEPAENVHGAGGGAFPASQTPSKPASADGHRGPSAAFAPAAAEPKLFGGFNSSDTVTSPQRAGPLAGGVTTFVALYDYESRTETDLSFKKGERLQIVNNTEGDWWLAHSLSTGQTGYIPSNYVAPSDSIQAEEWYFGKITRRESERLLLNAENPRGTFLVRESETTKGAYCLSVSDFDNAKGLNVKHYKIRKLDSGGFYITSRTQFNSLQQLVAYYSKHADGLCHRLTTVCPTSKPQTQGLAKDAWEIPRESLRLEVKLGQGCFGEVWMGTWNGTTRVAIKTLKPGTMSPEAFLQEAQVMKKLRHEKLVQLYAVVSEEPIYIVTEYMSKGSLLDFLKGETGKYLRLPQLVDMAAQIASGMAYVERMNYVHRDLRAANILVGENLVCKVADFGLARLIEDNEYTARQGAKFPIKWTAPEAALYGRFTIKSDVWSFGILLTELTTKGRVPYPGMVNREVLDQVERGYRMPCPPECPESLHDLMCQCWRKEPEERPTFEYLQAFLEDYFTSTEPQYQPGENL

N#Cc1ccnc2[nH]cc(C(=O)c3c(F)ccc(NS(=O)(=O)c4ccc(F)cc4)c3F)c12 [P-2035, N-[3-(4-Cyano-1H-pyrrolo[2,3-b]pyridine-3-carbonyl)-2,4-difluoro-phenyl]-4-fluoro-benzenesulfonamide]
not listed: Src | Kdr
≤ 10 µM: all other assays above

N#Cc1cnc2[nH]cc(C(=O)c3cccc(NS(=O)(=O)c4ccccc4)c3F)c2c1 [P-2056, N-[3-(5-Cyano-1H-pyrrolo[2,3-b]pyridine-3-carbonyl)-2-fluoro-phenyl]-benzenesulfonamide]
not listed: Kit | Kdr
≤ 10 µM: all other assays above

N#Cc1cnc2[nH]cc(C(=O)c3cccc(NS(=O)(=O)c4ccc(C(F)(F)F)cc4)c3F)c2c1 [P-2057, N-[3-(5-Cyano-1H-pyrrolo[2,3-b]pyridine-3-carbonyl)-2-fluoro-phenyl]-4-trifluoromethyl-benzenesulfonamide]
not listed: Kit | Kdr
≤ 10 µM: all other assays above

N#Cc1ccnc2[nH]cc(C(=O)c3c(F)ccc(NS(=O)(=O)c4cccnc4)c3F)c12 [P-2077, Pyridine-3-sulfonic acid [3-(4-cyano-1H-pyrrolo[2,3-b]pyridine-3-carbonyl)-2,4-difluoro-phenyl]-amide]
≤ 10 µM: B-Raf V600E | A-Raf | B-Raf | C-Raf

N#Cc1ccnc2[nH]cc(C(=O)c3c(F)ccc(NS(=O)(=O)c4ccccn4)c3F)c12 [P-2078, Pyridine-2-sulfonic acid [3-(4-cyano-1H-pyrrolo[2,3-b]pyridine-3-carbonyl)-2,4-difluoro-phenyl]-amide]
not listed: Kit | Kdr
≤ 10 µM: all other assays above

CCCS(=O)(=O)Nc1ccc(F)c(C(=O)c2c[nH]c3nccc(Cl)c23)c1F [P-2208, Propane-1-sulfonic acid [3-(4-chloro-1H-pyrrolo[2,3-b]pyridine-3-carbonyl)-2,4-difluoro-phenyl]-amide]
not listed: Kit | Src
≤ 10 µM: all other assays above

CCCS(=O)(=O)Nc1ccc(F)c(C(=O)c2c[nH]c3ncc(CCC(=O)NOC)cc23)c1F [P-2243, 3-{3-[2,6-Difluoro-3-(propane-1-sulfonylamino)-benzoyl]-1H-pyrrolo[2,3-b]pyridin-5-yl}-N-methoxy-propionamide]
not listed: Kit | Src
≤ 10 µM: all other assays above

CCCS(=O)(=O)Nc1ccc(F)c(C(=O)c2c[nH]c3ncc(CCC(=O)N(CC)CC)cc23)c1F [P-2255, 3-{3-[2,6-Difluoro-3-(propane-1-sulfonylamino)-benzoyl]-1H-pyrrolo[2,3-b]pyridin-5-yl}-N,N-diethyl-propionamide]
not listed: Kit | Src
≤ 10 µM: all other assays above

CCCS(=O)(=O)Nc1ccc(F)c(C(=O)c2c[nH]c3ncc(CN(CC)CC)cc23)c1F [P-2258, Propane-1-sulfonic acid [3-(5-diethylaminomethyl-1H-pyrrolo[2,3-b]pyridine-3-carbonyl)-2,4-difluoro-phenyl]-amide]
≤ 10 µM: B-Raf V600E | A-Raf | B-Raf | C-Raf

CCCS(=O)(=O)Nc1ccc(F)c(C(=O)c2c[nH]c3ncc(CN4CCCC4)cc23)c1F [P-2259, Propane-1-sulfonic acid [2,4-difluoro-3-(5-pyrrolidin-1-ylmethyl-1H-pyrrolo[2,3-b]pyridine-3-carbonyl)-phenyl]-amide]
≤ 10 µM: B-Raf V600E | A-Raf | B-Raf | C-Raf

CCS(=O)(=O)Nc1ccc(F)c(C(=O)c2c[nH]c3nccc(C#N)c23)c1F [P-2283, Ethanesulfonic acid [3-(4-cyano-1H-pyrrolo[2,3-b]pyridine-3-carbonyl)-2,4-difluoro-phenyl]-amide]
≤ 10 µM: B-Raf V600E | A-Raf | B-Raf | C-Raf

CC(C)S(=O)(=O)Nc1ccc(F)c(C(=O)c2c[nH]c3nccc(Cl)c23)c1F [P-2284, Propane-2-sulfonic acid [3-(4-chloro-1H-pyrrolo[2,3-b]pyridine-3-carbonyl)-2,4-difluoro-phenyl]-amide]
≤ 10 µM: B-Raf V600E | Src | A-Raf | C-Raf

CC(C)S(=O)(=O)Nc1ccc(F)c(C(=O)c2c[nH]c3nccc(C#N)c23)c1F [P-2285, Propane-2-sulfonic acid [3-(4-cyano-1H-pyrrolo[2,3-b]pyridine-3-carbonyl)-2,4-difluoro-phenyl]-amide]
≤ 10 µM: B-Raf V600E | A-Raf | B-Raf | C-Raf

CCCC(C)S(=O)(=O)Nc1ccc(F)c(C(=O)c2c[nH]c3ncc(C#N)cc23)c1F (stereo not drawn) [P-2314, Pentane-2-sulfonic acid [3-(5-cyano-1H-pyrrolo[2,3-b]pyridine-3-carbonyl)-2,4-difluoro-phenyl]-amide]
≤ 10 µM: B-Raf V600E | A-Raf | Kit | C-Raf

CCCC(C)S(=O)(=O)Nc1ccc(F)c(C(=O)c2c[nH]c3nccc(OC)c23)c1F (stereo not drawn) [P-2316, Pentane-2-sulfonic acid [2,4-difluoro-3-(4-methoxy-1H-pyrrolo[2,3-b]pyridine-3-carbonyl)-phenyl]-amide]
≤ 10 µM: B-Raf V600E | Src | A-Raf

CCC(C)S(=O)(=O)Nc1ccc(F)c(C(=O)c2c[nH]c3ncc(C#N)cc23)c1F (stereo not drawn) [P-2317, Butane-2-sulfonic acid [3-(5-cyano-1H-pyrrolo[2,3-b]pyridine-3-carbonyl)-2,4-difluoro-phenyl]-amide]
not listed: Src | Kdr
≤ 10 µM: all other assays above

CC(C)CS(=O)(=O)Nc1ccc(F)c(C(=O)c2c[nH]c3nccc(C#N)c23)c1F [P-2320, 2-Methyl-propane-1-sulfonic acid [3-(4-cyano-1H-pyrrolo[2,3-b]pyridine-3-carbonyl)-2,4-difluoro-phenyl]-amide]
not listed: Kit | Src
≤ 10 µM: all other assays above

O=C(c1c(F)ccc(NS(=O)(=O)C2CCC2)c1F)c1c[nH]c2nccc(Cl)c12 [P-2363, Cyclobutanesulfonic acid [3-(4-chloro-1H-pyrrolo[2,3-b]pyridine-3-carbonyl)-2,4-difluoro-phenyl]-amide]
not listed: Kit | Src
≤ 10 µM: all other assays above

N#Cc1ccnc2[nH]cc(C(=O)c3c(F)ccc(NS(=O)(=O)C4CCC4)c3F)c12 [P-2370, Cyclobutanesulfonic acid [3-(4-cyano-1H-pyrrolo[2,3-b]pyridine-3-carbonyl)-2,4-difluoro-phenyl]-amide]
not listed: Kit | Src
≤ 10 µM: all other assays above

N#Cc1ccnc2[nH]cc(C(=O)c3c(F)ccc(NS(=O)(=O)N4CCOCC4)c3F)c12 [P-2395, Morpholine-4-sulfonic acid [3-(4-cyano-1H-pyrrolo[2,3-b]pyridine-3-carbonyl)-2,4-difluoro-phenyl]-amide]
≤ 10 µM: B-Raf V600E | A-Raf | B-Raf | C-Raf
